Source: publication PMC11384632, “Protease-activated CendR peptides targeting tenascin-C: mitigating off-target tissue accumulation” (Drug Delivery and Translational Research, 2024)
Peptide text beside a SMILES is read from it. * marks the point of attachment. 5FAM = O=C1OC2(c3ccc(O)cc3Oc3cc(O)ccc32)c2ccc(C(=O)*)cc21; Ahx = NCCCCCC(=O)O

Tested on: orthotopic WT-GBM-bearing nude mice
Assay: Biodistribution of monomeric FAM-labeled peptides in WT-GBM mice (anti-FAM DAB immunohistochemistry)
Assay type: in vivo
Conditions: 200 µg i.v., 1 h circulation, perfused, anti-FAM DAB staining, qualitative, n = 3, Fig. 6d
From the text: Whereas polyvalent targeting systems, such as bacteriophages and AgNPs used in previous sections, exploit multivalent interactions to enhance specificity and binding efficiency, monovalent targeting systems rely on single ligand-receptor interactions for targeted drug delivery. The choice between these two approaches depends on affinity of the targeting ligand and the pharmacokinetic properties of the therapeutic agent. We next studied in vivo biodistribution of monomeric FAM-labeled SKLG, PL3, and scrambled PL3 control (scrPL3) peptides in WT-GBM tumor-bearing mice. The mice were dosed with FAM-labeled peptides followed by perfusion, tissue collection, sectioning, and detection of the peptides using immunohistochemistry with anti-FAM antibodies.
Fig. 6 Biodistribution of monomeric FAM-labeled peptides in WT-GBM mice. Orthotopic GBM-bearing nude mice were i.v. injected with FAM-labeled scrambled PL3 control (scrPL3), PL3 or SKLG peptides. After 1 h of circulation the mice were anesthetized and perfused. Organs were harvested, sectioned, and parallel sections were immunostained with hematoxylin & eosin (H&E) staining or anti-FAM 3, 3'-diaminobenzidine (DAB) staining. (a) H&E of WT-GBM tumor-bearing brain tissue sections. (b) DAB staining of WT-GBM tumor region in the brain. (c) H&E staining of lung tissue sections. (d) DAB staining of lung tissue sections. […]

`CC(C)C[C@H](NC(=O)[C@H](CCCNC(=N)N)NC(=O)CNC(=O)[C@H](CCCNC(=N)N)NC(=O)CNC(=O)[C@H](C)NC(=O)[C@H](CCCNC(=N)N)NC(=O)CCCCCNC(=O)c1ccc2c(c1)C(=O)OC21c2ccc(O)cc2Oc2cc(O)ccc21)C(=O)N[C@H](C(=O)O)C(C)C` [scrPL3] ({5FAM-Ahx}-RAGRGRLV-OH) was tested, and the “accumulation of FAM-labeled peptide in pulmonary tissue” value was “only a background signal”.
